Tests used:
HDAC1 = HDAC1 (Homo sapiens (Human), UniProt Q13547); test: HDAC1 enzyme activity inhibition (HDAC1 Fluorimetric Drug Discovery Assay Kit); format: biochemical; settings: samples at 100, 1000 and 10000 nM; 37° C. 60 minutes
Description: (§1) A HDAC enzyme inhibitory capacity of a test material was measured by using HDAC1 Fluorimetric Drug Discovery Assay Kit (Enzolifesciences: BML-AK511) and HDAC6 human recombinant (Calbiochem: 382180). For a HDAC1 assay, samples were treated at a concentration of 100, 1000 and 10000 nM. For a HDAC6 assay, samples were treated at a concentration of 0.1, 1, 10, 100 and 1000 nM. After the above sample treatment, a reaction was continued at 37° C. for 60 minutes, treated with a developer, and subjected to reaction at 37° C. for 30 minutes, after which fluorescence intensity (Ex 390, Em 460) was measured by using FlexStatin3 (Molecular device).

HDAC6 human recombinant = HDAC6 human recombinant (Homo sapiens (Human), UniProt Q9UBN7); test: HDAC6 enzyme activity inhibition (fluorimetric, in vitro); format: biochemical; settings: samples at 0.1, 1, 10, 100 and 1000 nM; 37° C. 60 minutes
Sequence of HDAC6 human recombinant (Q9UBN7 whole entry): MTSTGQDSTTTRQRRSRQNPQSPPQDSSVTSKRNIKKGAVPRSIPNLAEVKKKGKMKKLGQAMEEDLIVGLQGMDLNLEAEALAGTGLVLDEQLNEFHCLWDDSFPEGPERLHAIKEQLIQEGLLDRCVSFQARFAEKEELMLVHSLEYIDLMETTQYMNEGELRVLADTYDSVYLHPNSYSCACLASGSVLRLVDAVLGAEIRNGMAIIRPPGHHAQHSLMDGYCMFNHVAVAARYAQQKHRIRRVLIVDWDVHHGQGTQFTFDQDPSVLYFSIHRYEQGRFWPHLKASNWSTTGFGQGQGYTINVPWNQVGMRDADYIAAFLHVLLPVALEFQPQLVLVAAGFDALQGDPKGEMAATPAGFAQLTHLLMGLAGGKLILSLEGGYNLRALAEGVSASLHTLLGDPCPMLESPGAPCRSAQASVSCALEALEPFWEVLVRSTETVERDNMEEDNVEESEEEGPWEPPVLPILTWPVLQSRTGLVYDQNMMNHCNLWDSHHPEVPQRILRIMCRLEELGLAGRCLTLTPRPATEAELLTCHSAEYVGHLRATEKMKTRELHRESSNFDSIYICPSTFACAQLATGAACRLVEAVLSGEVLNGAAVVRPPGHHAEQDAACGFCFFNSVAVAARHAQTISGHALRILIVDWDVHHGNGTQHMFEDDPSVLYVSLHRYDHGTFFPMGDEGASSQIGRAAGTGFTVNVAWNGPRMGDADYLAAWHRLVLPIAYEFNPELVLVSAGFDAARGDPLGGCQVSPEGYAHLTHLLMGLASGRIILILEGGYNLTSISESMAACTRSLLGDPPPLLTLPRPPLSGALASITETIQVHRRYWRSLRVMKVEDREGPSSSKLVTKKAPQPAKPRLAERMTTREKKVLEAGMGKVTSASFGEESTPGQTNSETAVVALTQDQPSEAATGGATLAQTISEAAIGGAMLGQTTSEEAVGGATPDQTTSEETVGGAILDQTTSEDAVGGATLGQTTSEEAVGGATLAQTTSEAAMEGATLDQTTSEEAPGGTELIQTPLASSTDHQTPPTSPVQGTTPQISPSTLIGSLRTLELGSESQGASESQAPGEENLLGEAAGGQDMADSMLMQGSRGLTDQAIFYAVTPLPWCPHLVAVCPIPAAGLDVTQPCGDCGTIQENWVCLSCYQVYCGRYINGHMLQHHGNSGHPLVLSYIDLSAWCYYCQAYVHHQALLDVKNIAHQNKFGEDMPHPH
Description: as §1

Sequence of HDAC1 (Q13547 whole entry): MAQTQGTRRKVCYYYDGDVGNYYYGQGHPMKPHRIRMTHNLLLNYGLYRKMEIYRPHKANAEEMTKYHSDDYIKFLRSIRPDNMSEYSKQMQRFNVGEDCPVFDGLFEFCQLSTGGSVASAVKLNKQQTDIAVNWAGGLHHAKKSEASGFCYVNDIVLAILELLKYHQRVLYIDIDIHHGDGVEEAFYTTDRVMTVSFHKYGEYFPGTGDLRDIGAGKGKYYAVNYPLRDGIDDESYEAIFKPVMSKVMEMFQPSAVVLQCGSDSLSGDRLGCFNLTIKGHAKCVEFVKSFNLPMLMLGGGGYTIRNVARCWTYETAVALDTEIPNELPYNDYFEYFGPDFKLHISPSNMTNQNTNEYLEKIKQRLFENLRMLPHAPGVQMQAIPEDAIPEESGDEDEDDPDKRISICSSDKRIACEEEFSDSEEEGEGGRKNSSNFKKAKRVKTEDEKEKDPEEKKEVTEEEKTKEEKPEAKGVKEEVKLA

## CC1(C)C(=O)N(c2ccccc2)C(=O)N1Cc1ccc(-c2nnc(C(F)F)o2)cc1F [Compound 1, 1-(4-(5-(difluoromethyl)-1,3,4-oxadiazol-2-yl)-2-fluorobenzyl)-5,5-dimethyl-3-phenylimidazolidin-2,4-dione]
HDAC1
  IC50: > 10000 nM
HDAC6 human recombinant
  IC50: 665 nM

## CC1(C)C(=O)N(c2ccccc2)C(=O)N1Cc1ccc(-c2nnc(C(F)(F)F)o2)cc1F [Compound 2, 1-(2-fluoro-4-(5-(trifluoromethyl)-1,3,4-oxadiazol-2-yl)benzyl)-5,5-dimethyl-3-phenylimidazolidin-2,4-dione]
HDAC1
  IC50: > 10000 nM
HDAC6 human recombinant
  IC50: 958 nM

## O=C1CN(c2ccccc2)C(=O)N1Cc1ccc(-c2nnc(C(F)F)o2)cc1F [Compound 3, 3-(4-(5-(difluoromethyl)-1,3,4-oxadiazol-2-yl)-2-fluorobenzyl)-1-phenylimidazolidin-2,4-dione]
HDAC1
  IC50: > 10000 nM
HDAC6 human recombinant
  IC50: 219 nM

## O=C1CN(c2ccccc2)C(=O)N1Cc1ccc(-c2nnc(C(F)F)o2)cn1 [Compound 4, 3-((5-(5-(difluoromethyl)-1,3,4-oxadiazol-2-yl)pyridin-2-yl)methyl)-1-phenylimidazolidin-2,4-dione]
HDAC1
  IC50: > 10000 nM
HDAC6 human recombinant
  IC50: 99 nM

## CC(C)(C)OC(=O)N1CCC2(CC1)C(=O)N(Cc1ccc(-c3nnc(C(F)F)o3)cn1)C(=O)N2c1cccc(F)c1 [Compound 5, tert-butyl 3-((5-(5-(difluoromethyl)-1,3,4-oxadiazol-2-yl)pyridin-2-yl)methyl)-1-(3-fluorophenyl)-2,4-dioxo-1,3,8-triazaspiro[4.5]decan-8-carboxylate]
HDAC1
  IC50: > 10000 nM
HDAC6 human recombinant
  IC50: 206 nM

## CN1CCC2(CC1)C(=O)N(Cc1ccc(-c3nnc(C(F)F)o3)cn1)C(=O)N2c1cccc(F)c1 [Compound 6, 3-((5-(5-(difluoromethyl)-1,3,4-oxadiazol-2-yl)pyridin-2-yl)methyl)-1-(3-fluorophenyl)-8-methyl-1,3,8-triazaspiro[4.5]decan-2,4-dione]
HDAC1
  IC50: > 10000 nM
HDAC6 human recombinant
  IC50: 104 nM

## O=C1N(Cc2ccc(-c3nnc(C(F)F)o3)cn2)C(=O)C2(CCN(C3COC3)CC2)N1c1cccc(F)c1 [Compound 7, 3-((5-(5-(difluoromethyl)-1,3,4-oxadiazol-2-yl)pyridin-2-yl)methyl)-1-(3-fluorophenyl)-8-(oxetan-3-yl)-1,3,8-triazaspiro[4.5]decan-2,4-dione]
HDAC1
  IC50: > 10000 nM
HDAC6 human recombinant
  IC50: 100 nM

## CC(C)N1CCC2(CC1)C(=O)N(Cc1ccc(-c3nnc(C(F)F)o3)cn1)C(=O)N2c1cccc(F)c1 [Compound 8, 3-((5-(5-(difluoromethyl)-1,3,4-oxadiazol-2-yl)pyridin-2-yl)methyl)-1-(3-fluorophenyl)-8-isopropyl-1,3,8-triazaspiro[4.5]decan-2,4-dione]
HDAC1
  IC50: > 10000 nM
HDAC6 human recombinant
  IC50: 99 nM

## O=C1CN(c2ccccc2)C(=O)N1Cc1ncc(-c2nnc(C(F)F)o2)cn1 [Compound 9, 3-((5-(5-(difluoromethyl)-1,3,4-oxadiazol-2-yl)pyrimidin-2-yl)methyl)-1-phenylimidazolidin-2,4-dione]
HDAC1
  IC50: > 10000 nM
HDAC6 human recombinant
  IC50: 147 nM

## CC1(C)C(=O)N(Cc2ccc(-c3nnc(C(F)F)o3)cn2)C(=O)N1c1cccc(F)c1 [Compound 10, 3-((5-(5-(difluoromethyl)-1,3,4-oxadiazol-2-yl)pyridin-2-yl)methyl)-1-(3-fluorophenyl)-5,5-dimethylimidazolidin-2,4-dione]
HDAC1
  IC50: > 10000 nM
HDAC6 human recombinant
  IC50: 53 nM

## CC1(C)C(=O)N(Cc2ccc(-c3nnc(C(F)F)o3)cn2)C(=O)N1c1cccc(Br)c1 [Compound 11, 1-(3-bromophenyl)-3-((5-(5-(difluoromethyl)-1,3,4-oxadiazol-2-yl)pyridin-2-yl)methyl)-5,5-dimethylimidazolidin-2,4-dione]
HDAC1
  IC50: > 10000 nM
HDAC6 human recombinant
  IC50: 56 nM

## CC1(C)C(=O)N(Cc2ccc(-c3nnc(C(F)F)o3)cn2)C(=O)N1c1ccc(F)cc1 [Compound 12, 3-((5-(5-(difluoromethyl)-1,3,4-oxadiazol-2-yl)pyridin-2-yl)methyl)-1-(4-fluorophenyl)-5,5-dimethylimidazolidin-2,4-dione]
HDAC1
  IC50: > 10000 nM
HDAC6 human recombinant
  IC50: 60 nM

## CC1(C)C(=O)N(Cc2ccc(-c3nnc(C(F)F)o3)cn2)C(=O)N1c1c(F)cccc1F [Compound 13, 3-((5-(5-(difluoromethyl)-1,3,4-oxadiazol-2-yl)pyridin-2-yl)methyl)-1-(2,6-difluorophenyl)-5,5-dimethylimidazolidin-2,4-dione]
HDAC1
  IC50: > 10000 nM
HDAC6 human recombinant
  IC50: 27 nM

## CC1(C)C(=O)N(Cc2ccc(-c3nnc(C(F)F)o3)cn2)C(=O)N1c1ccc(F)cc1F [Compound 14, 3-((5-(5-(difluoromethyl)-1,3,4-oxadiazol-2-yl)pyridin-2-yl)methyl)-1-(2,4-difluorophenyl)-5,5-dimethylimidazolidin-2,4-dione]
HDAC1
  IC50: > 10000 nM
HDAC6 human recombinant
  IC50: 56 nM

## CC1(C)C(=O)N(Cc2ccc(-c3nnc(C(F)F)o3)cn2)C(=O)N1c1cccc(F)c1F [Compound 15, 3-((5-(5-(difluoromethyl)-1,3,4-oxadiazol-2-yl)pyridin-2-yl)methyl)-1-(2,3-difluorophenyl)-5,5-dimethylimidazolidin-2,4-dione]
HDAC1
  IC50: > 10000 nM
HDAC6 human recombinant
  IC50: 43 nM

## CC1(C)C(=O)N(Cc2ccc(-c3nnc(C(F)F)o3)cn2)C(=O)N1c1ccc(F)c(F)c1 [Compound 16, 3-((5-(5-(difluoromethyl)-1,3,4-oxadiazol-2-yl)pyridin-2-yl)methyl)-1-(3,4-difluorophenyl)-5,5-dimethylimidazolidin-2,4-dione]
HDAC1
  IC50: > 10000 nM
HDAC6 human recombinant
  IC50: 142 nM

## CC1(C)C(=O)N(Cc2ccc(-c3nnc(C(F)F)o3)cn2)C(=O)N1c1cc(F)cc(F)c1 [Compound 17, 3-((5-(5-(difluoromethyl)-1,3,4-oxadiazol-2-yl)pyridin-2-yl)methyl)-1-(3,5-difluorophenyl)-5,5-dimethylimidazolidin-2,4-dione]
HDAC1
  IC50: > 10000 nM
HDAC6 human recombinant
  IC50: 69 nM

## CC1(C)C(=O)N(Cc2ccc(-c3nnc(C(F)F)o3)cn2)C(=O)N1c1ccccc1 [Compound 18, 3-((5-(5-(difluoromethyl)-1,3,4-oxadiazol-2-yl)pyridin-2-yl)methyl)-5,5-dimethyl-1-phenylimidazolidin-2,4-dione]
HDAC1
  IC50: > 10000 nM
HDAC6 human recombinant
  IC50: 79 nM

## CN1CC=C(c2cccc(N3C(=O)N(Cc4ccc(-c5nnc(C(F)F)o5)cn4)C(=O)C3(C)C)c2)CC1 [Compound 19, 3-((5-(5-(difluoromethyl)-1,3,4-oxadiazol-2-yl)pyridin-2-yl)methyl)-5,5-dimethyl-1-(3-(1-methyl-1,2,3,6-tetrahydropyridin-4-yl)phenyl)imidazolidin-2,4-dione]
HDAC1
  IC50: > 10000 nM
HDAC6 human recombinant
  IC50: 85 nM

## CN1CCC(c2cccc(N3C(=O)N(Cc4ccc(-c5nnc(C(F)F)o5)cn4)C(=O)C3(C)C)c2)CC1 [Compound 20, 3-((5-(5-(difluoromethyl)-1,3,4-oxadiazol-2-yl)pyridin-2-yl)methyl)-5,5-dimethyl-1-(3-(1-methylpiperidin-4-yl)phenyl)imidazolidin-2,4-dione]
HDAC1
  IC50: > 10000 nM
HDAC6 human recombinant
  IC50: 90 nM

## CN1CC2(C1)C(=O)N(Cc1ccc(-c3nnc(C(F)F)o3)cn1)C(=O)N2c1ccccc1 [Compound 21, 7-((5-(5-(difluoromethyl)-1,3,4-oxadiazol-2-yl)pyridin-2-yl)methyl)-2-methyl-5-phenyl-2,5,7-triazaspiro[3.4]octan-6,8-dione]
HDAC1
  IC50: > 10000 nM
HDAC6 human recombinant
  IC50: 241 nM

Source: patent US20230295142A1, “NOVEL COMPOUNDS AS HISTONE DEACETYLASE 6 INHIBITOR, AND PHARMACEUTICAL COMPOSITION COMPRISING THE SAME” (CHONG KUN DANG PHARMACEUTICAL CORP., priority 2020, published 2023)
